Laboratory results taken from PMC4510386, “Transglycosylation Activity of Glycosynthase Mutants of Endo-β-N-Acetylglucosaminidase from Coprinopsis cinerea” (PLoS ONE, 2015).

Molecular target: T1, Endo-CC1 (Coprinopsis cinerea, UniProt A8P7P2)
T1 construct: gene CC1G_11102; full-length cDNA, 787 residues, His6-tagged, pET23b NdeI/XhoI, E. coli BL21-CodonPlus (DE3), HisTrap purified
Experiment: HPLC of Dns-Asn-GlcNAc release, Lineweaver-Burk
Assay type: biochemical
Conditions: 100 mM phosphate pH 7.5, 37 C; hydrolysis

T1 sequence (A8P7P2 entry or part of it): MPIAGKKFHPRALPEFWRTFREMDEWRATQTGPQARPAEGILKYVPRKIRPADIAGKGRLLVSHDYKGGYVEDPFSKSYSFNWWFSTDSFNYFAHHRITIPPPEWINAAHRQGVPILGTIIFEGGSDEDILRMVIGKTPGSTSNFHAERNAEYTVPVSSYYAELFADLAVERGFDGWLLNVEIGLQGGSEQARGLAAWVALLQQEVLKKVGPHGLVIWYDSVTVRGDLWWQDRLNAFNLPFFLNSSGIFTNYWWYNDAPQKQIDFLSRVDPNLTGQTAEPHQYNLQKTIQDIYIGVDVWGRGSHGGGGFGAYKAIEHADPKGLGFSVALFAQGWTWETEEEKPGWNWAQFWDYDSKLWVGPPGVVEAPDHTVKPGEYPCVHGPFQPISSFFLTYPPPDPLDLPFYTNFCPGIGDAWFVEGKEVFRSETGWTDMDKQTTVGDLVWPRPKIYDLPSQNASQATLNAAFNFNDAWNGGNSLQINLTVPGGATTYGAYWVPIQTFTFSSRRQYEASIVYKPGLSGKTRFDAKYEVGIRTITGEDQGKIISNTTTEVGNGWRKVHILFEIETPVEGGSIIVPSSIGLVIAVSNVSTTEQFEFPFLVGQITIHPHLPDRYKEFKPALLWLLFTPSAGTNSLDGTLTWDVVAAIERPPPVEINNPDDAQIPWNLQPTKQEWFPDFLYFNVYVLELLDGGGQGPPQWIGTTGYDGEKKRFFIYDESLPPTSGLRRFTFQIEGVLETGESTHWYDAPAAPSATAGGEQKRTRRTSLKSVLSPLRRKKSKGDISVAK

Dns-SG
Km: 1900 µM
